Reference: article PMC11590026, “Synthesis, enzyme inhibition, and docking studies of new schiff bases of disalicylic acid methylene-based derivatives as dual-target antibacterial agents” (Frontiers in Chemistry, 2024)
Values after ≈ are worked out from the molar mass of the structure shown. Like-named read-outs stand apart in the source and are kept apart here.

Columns and labels:
B. subtilis = assay: MIC/MBC assay, twofold serial dilution; format: cell-based, Bacillus subtilis; details: for MIC: read-out: MIC
Procedure: (§1) The results of this in vitro assay test are consistent with the findings of the antimicrobial sensitivity test. […] It has lower antimicrobial activity than ciprofloxacin against all pathogens tested.
(§2) The MBC differs from the MIC. […]
(§3) 4.2.2. Minimum inhibitory concentration assay
(§4) In 96-well microtiter plates and […] of fresh bacterial culture of a single McFarland unit overnight, a double serial dilution of each compound […] in sterile standard saline were prepared to every single source well. Ciprofloxacin antibiotic (5 mg / mL - 1) and normal saline were included as standard reference in each assay. The plates were incubated at 37 0C overnight. As an indicator of bacterial growth, […] of p-iodonitrotetrazolium violet (INT) was added to each well and incubated at 37 0C for 30 […]
(§5) min. MIC values are recorded as the lowest concentration of the extract that completely inhibited bacterial growth that is clear well. The colorless tetrazolidium salt acts as an electron accepter and is reduced to a red colored formazan product by biological activity organisms. Where bacterial growth was inhibited, the solution in the well remained clear after incubation with INT. […]

S. aureus = assay: MIC/MBC assay, twofold serial dilution; format: cell-based, Staphylococcus aureus
Procedure: as §1, §2, §3, §4, §5

E. coli = assay: MIC/MBC assay, twofold serial dilution; format: cell-based, Escherichia coli; details: Escherichia coli; for MBC: read-out: MBC; for MIC: read-out: MIC
Procedure: as §1, §2, §3, §4, §5

P. aeruginosa = assay: MIC/MBC assay, twofold serial dilution; format: cell-based, Pseudomonas aeruginosa; details: for MIC: read-out: MIC
Procedure: as §1, §2, §3, §4, §5

[1] = tested on: S. aureus (ATCC 43300) (MRSA); assay: Antibacterial assay against multi-drug resistant strains (MIC/MBC); format: cell-based, Staphylococcus aureus; details: S. aureus ATCC 43300 (MRSA); for MBC: read-out: MBC
E. coli (ATCC BAA-196) = assay: as above; format: cell-based, Escherichia coli; details: for MBC: ATCCBAA196
[2] = tested on: P. aeruginosa (ATCC BAA-2111); assay: as above; format: cell-based, Pseudomonas aeruginosa; details: for MBC: ATCCBAA2111
[3] = Cell viability assay (MTT); format: cell-based; details: human, MCF-10A cells (normal mammary gland epithelial cell line), 4-day incubation
Procedure: The vitality of the investigated compounds was assessed using the MCF-10A cell line, which is a normal human mammary gland epithelial cell line. Following a 4-day incubation period on MCF-10A cells with a concentration of 50 µM for each compound being studied, the viability of the cells was assessed using the MTT test ([Hisham et al., 2022]; [Mahmoud et al., 2022]).
4.2.3. Cell Viability assay
MTT assay was carried out to study the effect of compounds on mammary epithelial cells (MCF-10A). The medium in which cells were propagated contained Dulbecco's modified Eagle's medium (DMEM)/ Ham's F-12 medium (1:1) supplemented with epidermal growth factor (20 ng/mL), hydrocortisone (500 ng/mL), insulin (10 μg/mL), 2 mM glutamine and 10% fetal calf serum. After every 2-3 days, the cells were passaged using trypsin ethylenediamine tetra acetic acid (EDTA). The cells were seeded at a density of 10^4 cells mL-1 in flat-bottomed culture plates containing 96 wells each. After 24 h, medium was removed from the plates and the compounds in (in 0.1% DMSO) were added (in 200 μL medium to yield a final concentration of 0.1% v/v) to the wells of plates. A single compound was designated with four wells followed by incubation of plates for 96h at 37°C. After incubation, medium was removed completely from the plates followed by addition of MTT (0.4 mg/mL in medium) to each well and subsequent incubation of plates for 3h. MTT (along with the medium) was removed and DMSO (150μL) was added to each well of the culture plates, followed by vortexing and subsequent measurement of absorbance (at 540 nm) using microplate reader. The data are shown as percentage inhibition of proliferation in comparison with controls

Gram-positive bacteria = assay: MBC assay, Gram-positive bacteria together; format: cell-based; details: Gram-positive bacteria (B. subtilis, S. aureus)
Text: The MBC differs from the MIC.

A. flavus = assay: Antifungal assay (MIC/MFC), twofold serial dilution; details: for MIC: A. flavus
C. albicans = assay: as above; details: Candida albicans
[4] = tested on: MDRB (multi-drug resistant bacteria); assay: MIC/MBC against the MDRB panel as a whole
Text: Norfloxacin, a broad-spectrum antibiotic, worked as positive control.

E. coli DNA gyrase = E. coli DNA gyrase (Escherichia coli, UniProt P0AES6); assay: E. coli DNA gyrase supercoiling inhibitory assay; format: biochemical
Procedure: The fluorescence was measured with a microplate reader (BioTek Synergy H4,
NaCl and 50 mM MgCl2) was added to terminate the enzymatic reaction. After
Initial screening was done at 100 or 10 μM concentration

DHFR E. Coli = DHFR E. Coli (Escherichia coli, UniProt P0ABQ4); assay: DHFR inhibitory assay; format: biochemical; details: read-out: IC50 DHFR E. Coli
DHFR E. Coli, sequence (P0ABQ4 whole entry): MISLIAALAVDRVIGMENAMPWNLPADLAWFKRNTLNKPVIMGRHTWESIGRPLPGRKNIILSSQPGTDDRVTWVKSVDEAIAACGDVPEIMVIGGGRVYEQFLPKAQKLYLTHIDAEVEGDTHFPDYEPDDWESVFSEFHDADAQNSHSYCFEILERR

[5] = Bacillus subtilis, read-out: MBC
[6] = Staphylococcus aureus, read-out: MBC
[7] = Staphylococcus aureus, read-out: MIC
[8] = Pseudomonas aeruginosa, read-out: MBC
[9] = Escherichia coli, ATCCBAA196, read-out: MIC
[10] = Pseudomonas aeruginosa, ATCCBAA2111, read-out: MIC

SMILES	MBC (B. subtilis; [5]) [µM]	MIC (B. subtilis; Bacillus subtilis) [µM]	MBC (S. aureus; [6]) [µM]	MIC (S. aureus; [7]) [µM]	MBC (E. coli) [µM]	MIC (E. coli) [µM]	MBC (P. aeruginosa; [8]) [µM]	MIC (P. aeruginosa; Pseudomonas aeruginosa) [µM]	MBC ([1]; Staphylococcus aureus) [µM]	MIC [1, 7] [µM]	MBC (E. coli (ATCC BAA-196); Escherichia coli) [µM]	MIC (E. coli (ATCC BAA-196); [9]) [µM]	MBC ([2]; Pseudomonas aeruginosa) [µM]	MIC [2, 10] [µM]	viability at 96 h, 50 µM [3] [%]	MBC (Gram-positive bacteria) [µM]	MIC (A. flavus) [µM]	MFC (A. flavus; Aspergillus flavus) [µM]	MIC (A. flavus; Aspergillus flavus) [µM]	MFC (C. albicans) [µM]	other results
COc1ccc2c(c1)/C(=N/NC(=O)c1cc(Cc3cc(Cl)c(O)c(C(=O)N/N=C4\C(=O)Nc5ccc(OC)cc54)c3)cc(Cl)c1O)C(=O)N2 [Compound 6e]	0.058 ± 0.003 (≈ 0.0408 µg/mL)	0.037 ± 0.002 (≈ 0.026 µg/mL)	0.054 ± 0.003 (≈ 0.038 µg/mL)	0.035 ± 0.002 (≈ 0.0246 µg/mL)	0.095 ± 0.006 (≈ 0.0668 µg/mL)	0.069 ± 0.004 (≈ 0.0485 µg/mL)	0.097 ± 0.006 (≈ 0.0682 µg/mL)	0.069 ± 0.005 (≈ 0.0485 µg/mL)	7.8 ± 0.5 (≈ 5.49 µg/mL)	5.9 ± 0.2 (≈ 4.15 µg/mL)	9.3 ± 0.6 (≈ 6.54 µg/mL)	6.25 ± 0.25 (≈ 4.4 µg/mL)	10.4 ± 0.7 (≈ 7.32 µg/mL)	7.15 ± 0.5 (≈ 5.03 µg/mL)	92	0.028 to 0.058 (≈ 0.0197 to 0.0408 µg/mL)	19.50 ± 1 (≈ 13.7 µg/mL)	40.2 ± 3 (≈ 28.3 µg/mL)	14.5 to 19.5 (≈ 10.2 to 13.7 µg/mL)	50.2 ± 3 (≈ 35.3 µg/mL)	MIC (C. albicans): 22.9 ± 1 µM (≈ 16.1 µg/mL)
O=C1Nc2ccc(Br)cc2/C1=N/NC(=O)c1cc(Cc2cc(Cl)c(O)c(C(=O)N/N=C3\C(=O)Nc4ccc(Br)cc43)c2)cc(Cl)c1O [Compound 6c]	0.051 ± 0.003 (≈ 0.0409 µg/mL)	0.033 ± 0.002 (≈ 0.0264 µg/mL)	0.045 ± 0.002 (≈ 0.0361 µg/mL)	0.029 (≈ 0.0232 µg/mL)	0.088 ± 0.006 (≈ 0.0705 µg/mL)	0.066 ± 0.004 (≈ 0.0529 µg/mL)	0.085 ± 0.006 (≈ 0.0681 µg/mL)	0.065 ± 0.005 (≈ 0.0521 µg/mL)	7.1 ± 0.5 (≈ 5.69 µg/mL)	4.7 ± 0.2 (≈ 3.77 µg/mL)	8.2 ± 0.6 (≈ 6.57 µg/mL)	5.3 ± 0.2 (≈ 4.25 µg/mL)	9.2 ± 0.6 (≈ 7.37 µg/mL)	6.85 ± 0.5 (≈ 5.49 µg/mL)	91	0.028 to 0.058 (≈ 0.0224 to 0.0465 µg/mL)	18.20 ± 1 (≈ 14.6 µg/mL)	35.9 ± 2 (≈ 28.8 µg/mL)	14.5 to 19.5 (≈ 11.6 to 15.6 µg/mL)	44.8 ± 3 (≈ 35.9 µg/mL)	MIC (S. aureus): 0.029 ± 0.002 µM (≈ 0.0232 µg/mL); MIC (C. albicans): 21.3 ± 1 µM (≈ 17.1 µg/mL)
CCn1cc(C(=O)O)c(=O)c2cc(F)c(N3CCNCC3)cc21 [Norfloxacin, reference compound]	–	–	–	–	–	–	–	–	2.8 ± 0.1 (≈ 0.894 µg/mL)	1.2 (≈ 0.383 µg/mL)	3.5 ± 0.1 (≈ 1.12 µg/mL)	1.6 (≈ 0.511 µg/mL)	4.7 ± 0.2 (≈ 1.5 µg/mL)	3.2 (≈ 1.02 µg/mL)	–	–	–	–	–	–	MIC [1]: 1.20 ± 0.10 µM (≈ 0.383 µg/mL); MIC (E. coli (ATCC BAA-196)): 1.60 ± 0.10 µM (≈ 0.511 µg/mL); MIC [2]: 3.20 ± 0.10 µM (≈ 1.02 µg/mL); MBC ([4]; read-out: MBC values): 2.8 to 4.7 µM (≈ 0.894 to 1.5 µg/mL); MIC ([4]; read-out: MIC values): 1.2 to 3.2 µM (≈ 0.383 to 1.02 µg/mL)
Cc1ccc2c(c1)/C(=N/NC(=O)c1cc(Cc3ccc(O)c(C(=O)N/N=C4\C(=O)Nc5ccc(C)cc54)c3)ccc1O)C(=O)N2 [Compound 6j]	0.047 (≈ 0.0283 µg/mL)	0.031 ± 0.002 (≈ 0.0187 µg/mL)	0.04 (≈ 0.0241 µg/mL)	0.025 (≈ 0.0151 µg/mL)	0.081 ± 0.006 (≈ 0.0488 µg/mL)	0.062 ± 0.004 (≈ 0.0374 µg/mL)	0.08 (≈ 0.0482 µg/mL)	0.061 ± 0.005 (≈ 0.0368 µg/mL)	5.9 ± 0.25 (≈ 3.56 µg/mL)	3.2 ± 0.15 (≈ 1.93 µg/mL)	6.1 ± 0.25 (≈ 3.68 µg/mL)	3.9 ± 0.15 (≈ 2.35 µg/mL)	7.8 ± 0.3 (≈ 4.7 µg/mL)	5.6 ± 0.25 (≈ 3.37 µg/mL)	92	0.028 to 0.058 (≈ 0.0169 to 0.035 µg/mL)	16.90 ± 1 (≈ 10.2 µg/mL)	33.9 ± 2 (≈ 20.4 µg/mL)	14.5 to 19.5 (≈ 8.74 to 11.8 µg/mL)	41.5 ± 3 (≈ 25 µg/mL)	MBC (B. subtilis): 0.047 ± 0.002 µM (≈ 0.0283 µg/mL); MBC (S. aureus): 0.04 ± 0.002 µM (≈ 0.0241 µg/mL); MIC (S. aureus): 0.025 ± 0.002 µM (≈ 0.0151 µg/mL); MBC (P. aeruginosa): 0.08 ± 0.006 µM (≈ 0.0482 µg/mL); IC50 (E. coli DNA gyrase): 117 ± 8 nM; IC50 (DHFR E. Coli): 5.1 ± 0.2 µM; MIC (C. albicans): 20.7 ± 1 µM (≈ 12.5 µg/mL)
